Measurements as given in patent US20120077694A1, “TARGETS IN BREAST CANCER FOR PROGNOSIS OR THERAPY” (The Regents of the University of California, priority 2006, published 2012).

The substances below were run on HCC1954 and CAMA1 cells (assay: Cell growth in 3D culture after shRNA knockdown). Details: vs shRNA control.
Type: cell-based, human

Colony size / cell growth in 3D culture, colonies were much smaller:
#2969 shPPFIA1: PPFIA1 shRNA hairpin, SEQ ID NO: 192 (CCGGGAGGAGATTGAAAGTCGAGTTCTCGAGAACTCGACTTTCAATCTCCTCTTTTT)
#5149 shNEU3: NEU3 shRNA hairpin, SEQ ID NO: 182 (CCGGAGTGACAACATGCTCCTTCAACTCGAGTTGAAGGAGCATGTTGTCACTTTTTT)
#38160 shFGF3: FGF3 shRNA hairpin, SEQ ID NO: 190 (CCGGGAGCTGGGCTATAATACGTATCTCGAGATACGTATTATAGCCCAGCTCTTTTTG)
